# Assay results taken from US9695155B2, “Herbicidal substituted pyrimidinyloxy benzene compounds” (E. I. DU PONT DE NEMOURS AND COMPANY, priority 2013, dated 2017).
# Tests used:
# corn [1] = assay: Test A postemergence; type: in vivo, Zea mays; conditions: 0 to 100 scale where 0 is no effect and 100 is complete control; for Corn plant response rating: 125 g ai/ha; for Plant response rating, Corn: 500 g ai/ha
# Outline: (§1)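 Compounds in non-phytotoxic solvent with surfactant applied as soil spray preemergence, or postemergence to plants 2-10 cm at one- to two-leaf stage, in loam/sand. After approximately 10 days in greenhouse, injury rated visually versus untreated controls, 0 (no effect) to 100 (complete control).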
# soybean = assay: Test C postemergence; type: in vivo, Glycine max; conditions: for Plant response rating (0 to 100), Soybean: 16 g ai/ha, 0 is no effect, 100 is complete control; for Soybean plant response rating: 31 g ai/ha; for Soybean plant response rating / Plant response rating, Soybean: scale 0 to 100 (0 no effect, 100 complete control)
# Outline: (§2)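 Plants were kept under greenhouse conditions for 13–15 days following spray. Pre-emergent application went to soil (loam–sand), post-emergent to foliage at 1–4 leaves. Evaluation: visual, percent control against untreated checks.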
# pigweed [2] = assay: Test A postemergence; type: in vivo, Amaranthus retroflexus; conditions: 0 to 100 scale where 0 is no effect and 100 is complete control; for Pigweed plant response rating: 125 g ai/ha; for Plant response rating, Pigweed: 500 g ai/ha
# Outline: as §1
# barnyardgrass = assay: Test C postemergence; type: in vivo, Echinochloa crus-galli; conditions: for Plant response rating (0 to 100), Barnyardgrass: 16 g ai/ha, 0 is no effect, 100 is complete control; for Barnyardgrass plant response rating: 31 g ai/ha, 13 to 15 days; for Barnyardgrass plant response rating / Plant response rating, Barnyardgrass: scale 0 to 100 (0 no effect, 100 complete control)
# Outline: as §2
# kochia = assay: Test C postemergence; type: in vivo, Kochia scoparia; conditions: for Plant response rating (0 to 100), Kochia: 16 g ai/ha, 0 is no effect, 100 is complete control; for Kochia plant response rating: 31 g ai/ha; for Kochia plant response rating / Plant response rating, Kochia: scale 0 to 100 (0 no effect, 100 complete control)
# Outline: as §2
# velvetleaf [3] = assay: Test A postemergence; type: in vivo, Abutilon theophrasti; conditions: 0 to 100 scale where 0 is no effect and 100 is complete control; for Velvetleaf plant response rating: 125 g ai/ha; for Plant response rating, Velvetleaf: 500 g ai/ha
# Outline: as §1
# Italian ryegrass = assay: Test C postemergence; type: in vivo, Lolium multiflorum; conditions: for Plant response rating (0 to 100), Ryegrass, Italian: 16 g ai/ha, 0 is no effect, 100 is complete control; for Ryegrass, Italian plant response rating: 31 g ai/ha; for Ryegrass, Italian plant response rating / Plant response rating, Ryegrass, Italian: scale 0 to 100 (0 no effect, 100 complete control)
# Outline: as §2
# waterhemp = assay: Test C postemergence; type: in vivo, Amaranthus rudis; conditions: for Plant response rating (0 to 100), Waterhemp: 16 g ai/ha, 0 is no effect, 100 is complete control; for Waterhemp plant response rating: 31 g ai/ha; for Waterhemp plant response rating / Plant response rating, Waterhemp: scale 0 to 100 (0 no effect, 100 complete control)
# Outline: as §2
# velvetleaf [4] = assay: Test A preemergence; type: in vivo, Abutilon theophrasti; conditions: for Velvetleaf plant response rating (0 to 100 scale): 125 g ai/ha; for Velvetleaf plant response rating: 500 g ai/ha, 0 to 100 scale where 0 is no effect and 100 is complete control
# Outline: as §1
# pigweed [5] = assay: Test A preemergence; type: in vivo, Amaranthus retroflexus; conditions: for Pigweed plant response rating (0 to 100 scale): 125 g ai/ha; for Pigweed plant response rating: 500 g ai/ha, 0 to 100 scale where 0 is no effect and 100 is complete control
# Outline: as §1
# large (Lg) crabgrass [6] = assay: Test A postemergence; type: in vivo, Digitaria sanguinalis; conditions: 0 to 100 scale where 0 is no effect and 100 is complete control; for Crabgrass, Large plant response rating: 125 g ai/ha; for Plant response rating, Crabgrass, Large: 500 g ai/ha
# Outline: as §1
# large (Lg) crabgrass [7] = assay: Test A preemergence; type: in vivo, Digitaria sanguinalis; conditions: for Crabgrass, Large plant response rating: 500 g ai/ha
# Outline: as §1
# morningglory = assay: Test A postemergence; type: in vivo, Ipomoea spp.; conditions: 0 to 100 scale where 0 is no effect and 100 is complete control; for Morningglory plant response rating: 125 g ai/ha; for Plant response rating, Morningglory: 500 g ai/ha
# Outline: as §1
# pigweed [8] = assay: Test C postemergence; type: in vivo, Amaranthus retroflexus; conditions: for Plant response rating (0 to 100), Pigweed: 16 g ai/ha, 0 is no effect, 100 is complete control; for Pigweed plant response rating: 31 g ai/ha; for Pigweed plant response rating / Plant response rating, Pigweed: scale 0 to 100 (0 no effect, 100 complete control)
# Outline: as §2
# johnsongrass = assay: Test C postemergence; type: in vivo, Sorghum halepense; conditions: for Plant response rating (0 to 100), Johnsongrass: 16 g ai/ha, 0 is no effect, 100 is complete control; for Johnsongrass plant response rating: 31 g ai/ha; for Johnsongrass plant response rating / Plant response rating, Johnsongrass: scale 0 to 100 (0 no effect, 100 complete control)
# Outline: as §2
# wild oat = assay: Test C postemergence; type: in vivo, Avena fatua; conditions: for Plant response rating (0 to 100), Oat, Wild: 16 g ai/ha, 0 is no effect, 100 is complete control; for Oat, Wild plant response rating: 31 g ai/ha; for Oat, Wild plant response rating / Plant response rating, Oat, Wild: scale 0 to 100 (0 no effect, 100 complete control)
# Outline: as §2
# giant foxtail = assay: Test C postemergence; type: in vivo, Setaria faberii; conditions: for Plant response rating (0 to 100), Foxtail, Giant: 16 g ai/ha, 0 is no effect, 100 is complete control; for Foxtail, Giant plant response rating: 31 g ai/ha; for Foxtail, Giant plant response rating / Plant response rating, Foxtail, Giant: scale 0 to 100 (0 no effect, 100 complete control)
# Outline: as §2
# corn [9] = assay: Test C postemergence; type: in vivo, Zea mays; conditions: for Plant response rating (0 to 100), Corn: 16 g ai/ha, 0 is no effect, 100 is complete control; for Corn plant response rating: 31 g ai/ha; for Corn plant response rating / Plant response rating, Corn: scale 0 to 100 (0 no effect, 100 complete control)
# Outline: as §2
# [10] = postemergence, visual rating, 13 to 15 days
# [11] = 125 g ai/ha, postemergence, visual rating
# [12] = Postemergence, 62 g ai/ha, 13 to 15 days
# [13] = 0 to 100 scale where 0 is no effect and 100 is complete control
smiles,measurement,setting,value
Clc1cnc(Oc2cccc(Cl)c2-n2cc(Cl)cn2)nc1 [Compound 220],Corn plant response rating,corn [1],40
same,"Plant response rating, Corn",corn [1],70
same,"Plant response rating (0 to 100), Soybean",soybean; postemergence,40
same,Soybean plant response rating,soybean; [10],65
same,"Plant response rating, Soybean",soybean; [11],95
same,"Plant response rating, Soybean",soybean; [12],60
same,Pigweed plant response rating,pigweed [2],100
same,"Plant response rating, Pigweed",pigweed [2],100
same,"Plant response rating (0 to 100), Barnyardgrass",barnyardgrass; postemergence,5
same,Barnyardgrass plant response rating,"barnyardgrass; postemergence, visual rating",10
same,"Plant response rating, Barnyardgrass",barnyardgrass; [11],15
same,"Plant response rating, Barnyardgrass","barnyardgrass; Postemergence, 62 g ai/ha",10
same,"Plant response rating (0 to 100), Kochia",kochia; postemergence,90
same,Kochia plant response rating,kochia; [10],90
same,"Plant response rating, Kochia",kochia; [11],95
same,"Plant response rating, Kochia",kochia; [12],95
same,Velvetleaf plant response rating,velvetleaf [3],100
same,"Plant response rating, Velvetleaf",velvetleaf [3],100
same,"Plant response rating (0 to 100), Ryegrass, Italian",Italian ryegrass; postemergence,0
same,"Ryegrass, Italian plant response rating",Italian ryegrass; [10],0
same,"Plant response rating, Ryegrass, Italian",Italian ryegrass; [11],10
same,"Plant response rating, Ryegrass, Italian",Italian ryegrass; [12],5
same,"Plant response rating (0 to 100), Waterhemp",waterhemp; postemergence,65
same,Waterhemp plant response rating,waterhemp; [10],70
same,"Plant response rating, Waterhemp",waterhemp; [11],85
same,"Plant response rating, Waterhemp",waterhemp; [12],75
same,Velvetleaf plant response rating (0 to 100 scale),velvetleaf [4],20
same,Velvetleaf plant response rating,velvetleaf [4],70
same,Pigweed plant response rating (0 to 100 scale),pigweed [5],100
same,Pigweed plant response rating,pigweed [5],100
same,"Crabgrass, Large plant response rating",large (Lg) crabgrass [6],100
same,"Plant response rating, Crabgrass, Large",large (Lg) crabgrass [6],100
same,"Crabgrass, Large plant response rating (0 to 100 scale)",large (Lg) crabgrass [7]; 125 g ai/ha,100
same,"Crabgrass, Large plant response rating",large (Lg) crabgrass [7]; [13],100
same,Morningglory plant response rating,morningglory,50
same,"Plant response rating, Morningglory",morningglory,100
same,"Plant response rating (0 to 100), Pigweed",pigweed [8]; postemergence,65
same,Pigweed plant response rating,pigweed [8]; [10],75
same,"Plant response rating, Pigweed",pigweed [8]; [11],90
same,"Plant response rating, Pigweed",pigweed [8]; [12],85
same,"Plant response rating (0 to 100), Johnsongrass",johnsongrass; postemergence,5
same,Johnsongrass plant response rating,johnsongrass; [10],0
same,"Plant response rating, Johnsongrass",johnsongrass; [11],5
same,"Plant response rating, Johnsongrass",johnsongrass; [12],5
same,"Plant response rating (0 to 100), Oat, Wild",wild oat; postemergence,5
same,"Oat, Wild plant response rating",wild oat; [10],25
same,"Plant response rating, Oat, Wild",wild oat; [11],50
same,"Plant response rating, Oat, Wild",wild oat; [12],35
same,"Plant response rating (0 to 100), Foxtail, Giant",giant foxtail; postemergence,0
same,"Foxtail, Giant plant response rating",giant foxtail; [10],5
same,"Plant response rating, Foxtail, Giant",giant foxtail; [11],5
same,"Plant response rating, Foxtail, Giant",giant foxtail; [12],10
same,"Plant response rating (0 to 100), Corn",corn [9]; postemergence,5
same,Corn plant response rating,corn [9]; [10],10
same,"Plant response rating, Corn",corn [9]; [11],10
same,"Plant response rating, Corn",corn [9]; [12],10
Fc1cnc(Oc2cccc(C(F)F)c2-n2cc(C(F)(F)F)cn2)nc1 [Compound 164],Corn plant response rating,corn [1],40
same,"Plant response rating, Corn",corn [1],90
same,"Plant response rating (0 to 100), Soybean",soybean; postemergence,40
same,Soybean plant response rating,soybean; [10],35
same,"Plant response rating, Soybean",soybean; [11],65
same,"Plant response rating, Soybean","soybean; Postemergence, 62 g ai/ha",75
same,Pigweed plant response rating,pigweed [2],100
same,"Plant response rating, Pigweed",pigweed [2],100
same,"Plant response rating (0 to 100), Barnyardgrass",barnyardgrass; postemergence,0
same,Barnyardgrass plant response rating,"barnyardgrass; postemergence, visual rating",0
same,"Plant response rating, Barnyardgrass",barnyardgrass; [11],5
same,"Plant response rating, Barnyardgrass","barnyardgrass; Postemergence, 62 g ai/ha",5
same,"Plant response rating (0 to 100), Kochia",kochia; postemergence,80
same,Kochia plant response rating,kochia; [10],90
same,"Plant response rating, Kochia",kochia; [11],95
same,"Plant response rating, Kochia","kochia; Postemergence, 62 g ai/ha",90
same,Velvetleaf plant response rating,velvetleaf [3],100
same,"Plant response rating, Velvetleaf",velvetleaf [3],100
same,"Plant response rating (0 to 100), Ryegrass, Italian",Italian ryegrass; postemergence,0
same,"Ryegrass, Italian plant response rating",Italian ryegrass; [10],0
same,"Plant response rating, Ryegrass, Italian",Italian ryegrass; [11],0
same,"Plant response rating, Ryegrass, Italian","Italian ryegrass; Postemergence, 62 g ai/ha",0
same,"Plant response rating (0 to 100), Waterhemp",waterhemp; postemergence,50
same,Waterhemp plant response rating,waterhemp; [10],45
same,"Plant response rating, Waterhemp",waterhemp; [11],75
same,"Plant response rating, Waterhemp","waterhemp; Postemergence, 62 g ai/ha",65
same,Velvetleaf plant response rating (0 to 100 scale),velvetleaf [4],100
same,Velvetleaf plant response rating,velvetleaf [4],100
same,Pigweed plant response rating (0 to 100 scale),pigweed [5],100
same,Pigweed plant response rating,pigweed [5],100
same,"Crabgrass, Large plant response rating",large (Lg) crabgrass [6],80
same,"Plant response rating, Crabgrass, Large",large (Lg) crabgrass [6],100
same,"Plant response rating, Crabgrass, Large","large (Lg) crabgrass [7]; 125 g ai/ha, 0 to 100 scale where 0 is no effect and 100 is complete control",100
same,"Crabgrass, Large plant response rating",large (Lg) crabgrass [7]; [13],100
same,Morningglory plant response rating,morningglory,80
same,"Plant response rating, Morningglory",morningglory,100
same,"Plant response rating (0 to 100), Pigweed",pigweed [8]; postemergence,50
same,Pigweed plant response rating,pigweed [8]; [10],75
same,"Plant response rating, Pigweed",pigweed [8]; [11],80
same,"Plant response rating, Pigweed","pigweed [8]; Postemergence, 62 g ai/ha",75
same,"Plant response rating (0 to 100), Johnsongrass",johnsongrass; postemergence,0
same,Johnsongrass plant response rating,johnsongrass; [10],0
same,"Plant response rating, Johnsongrass",johnsongrass; [11],10
same,"Plant response rating, Johnsongrass","johnsongrass; Postemergence, 62 g ai/ha",5
same,"Plant response rating (0 to 100), Oat, Wild",wild oat; postemergence,0
same,"Oat, Wild plant response rating",wild oat; [10],5
same,"Plant response rating, Oat, Wild",wild oat; [11],15
same,"Plant response rating, Oat, Wild","wild oat; Postemergence, 62 g ai/ha",5
same,"Plant response rating (0 to 100), Foxtail, Giant",giant foxtail; postemergence,0
same,"Foxtail, Giant plant response rating",giant foxtail; [10],20
same,"Plant response rating, Foxtail, Giant",giant foxtail; [11],10
same,"Plant response rating, Foxtail, Giant","giant foxtail; Postemergence, 62 g ai/ha",10
same,"Plant response rating (0 to 100), Corn",corn [9]; postemergence,0
same,Corn plant response rating,corn [9]; [10],5
same,"Plant response rating, Corn",corn [9]; [11],5
same,"Plant response rating, Corn","corn [9]; Postemergence, 62 g ai/ha",5
